Experimental data as given in PubChem BioAssay AID1963968 (Molecular Pharmacology Branch, DTP, NCI, 2024).

System: 945468-187-T-J3-PDC spheroids with HUVEC/MSC, viability
Assay: Anticancer human tumor 945468-187-T-J3-PDC patient-derived rectal carcinoma cell line growth inhibition [PI3K]
Conditions: for IC50: curve of first compound; for viability, T/C: stronger effect = lower value
Method in brief: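 Agents were dosed from a top concentration near clinical Cmax (otherwise 10 microM) in half-log decrements, alone or combined with PI3K inhibitors. The spheroids contain tumor cells plus endothelial (HUVEC) and MSC stroma; viability is measured.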

[1] = second compound 0.0316 µM, first compound 0.0316 µM
[2] = second compound 0.0316 µM, first compound 0.1 µM
[3] = second compound 0.0316 µM, first compound 0.316 µM
[4] = second compound 0.0316 µM, first compound 1 µM
[5] = second compound 0.0316 µM, first compound 3.16 µM
[6] = second compound 0.0316 µM, first compound 10 µM
[7] = second compound 0.1 µM, first compound 0.0316 µM
[8] = second compound 0.1 µM, first compound 0.1 µM
[9] = second compound 0.1 µM, first compound 0.316 µM
[10] = second compound 0.1 µM, first compound 1 µM
[11] = second compound 0.1 µM, first compound 3.16 µM
[12] = second compound 0.1 µM, first compound 10 µM
[13] = second compound 0.316 µM, first compound 0.0316 µM
[14] = second compound 0.316 µM, first compound 0.1 µM
[15] = second compound 0.316 µM, first compound 0.316 µM
[16] = second compound 0.316 µM, first compound 1 µM
[17] = second compound 0.316 µM, first compound 3.16 µM
[18] = second compound 0.316 µM, first compound 10 µM
[19] = second compound 1 µM, first compound 0.0316 µM
[20] = second compound 1 µM, first compound 0.1 µM
[21] = second compound 1 µM, first compound 0.316 µM
[22] = second compound 1 µM, first compound 1 µM
[23] = second compound 1 µM, first compound 3.16 µM
[24] = second compound 1 µM, first compound 10 µM
[25] = second compound 3.16 µM, first compound 0.0316 µM
[26] = second compound 3.16 µM, first compound 0.1 µM
[27] = second compound 3.16 µM, first compound 0.316 µM
[28] = second compound 3.16 µM, first compound 1 µM
[29] = second compound 3.16 µM, first compound 3.16 µM
[30] = second compound 3.16 µM, first compound 10 µM
[31] = second compound 10 µM, first compound 0.0316 µM
[32] = second compound 10 µM, first compound 0.1 µM
[33] = second compound 10 µM, first compound 0.316 µM
[34] = second compound 10 µM, first compound 1 µM
[35] = second compound 10 µM, first compound 3.16 µM
[36] = second compound 10 µM, first compound 10 µM
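Also: spheroids exposed to agents for 7 days before viability read.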
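For viability, T/C in this document: 100% = DMSO vehicle control viability.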

CC1(C)CCC(CN2CCN(c3ccc(C(=O)NS(=O)(=O)c4ccc(NCC5CCOCC5)c([N+](=O)[O-])c4)c(Oc4cnc5[nH]ccc5c4)c3)CC2)=C(c2ccc(Cl)cc2)C1 + Cc1nc(NC(=O)N2CCCC2C(N)=O)sc1-c1ccnc(C(C)(C)C(F)(F)F)c1 showed an IC50 (second compound 0.0316 µM) of 6.84 µM, an IC50 (second compound 0.1 µM) of 6.42 µM and an IC50 (second compound 0.316 µM) of 6.58 µM. For the same molecule, the IC50 (second compound 1 µM) was 6.68 µM, the IC50 (second compound 3.16 µM) was 6.32 µM and the IC50 (second compound 10 µM) was 4.27 µM. It also gave a viability, T/C [1] of 95.4%, a viability, T/C [2] of 109% and a viability, T/C [3] of 97.5%. For the same molecule, the viability, T/C [4] was 120%, the viability, T/C [5] was 125% and the viability, T/C [6] was 20.8%. It also gave a viability, T/C [7] of 100%, a viability, T/C [8] of 108% and a viability, T/C [9] of 101%. For the same molecule, the viability, T/C [10] was 117%, the viability, T/C [11] was 123% and the viability, T/C [12] was 12.5%. It also gave a viability, T/C [13] of 107%, a viability, T/C [14] of 112% and a viability, T/C [15] of 113%. For the same molecule, the viability, T/C [16] was 120%, the viability, T/C [17] was 130% and the viability, T/C [18] was 12.2%. For the same molecule, the viability, T/C [19] was 117%, the viability, T/C [20] was 115% and the viability, T/C [21] was 106%. It also gave a viability, T/C [22] of 113%, a viability, T/C [23] of 114% and a viability, T/C [24] of 15.8%. The viability, T/C [25] was 116%, the viability, T/C [26] was 101% and the viability, T/C [27] was 101%. For the same molecule, the viability, T/C [28] was 122%, the viability, T/C [29] was 104% and the viability, T/C [30] was 14.5%. It also gave a viability, T/C [31] of 70.7%, a viability, T/C [32] of 59% and a viability, T/C [33] of 63.8%. For the same molecule, the viability, T/C [34] was 68.4%, the viability, T/C [35] was 63.3% and the viability, T/C [36] was 12.1%.
For C[C@@H](NC(=O)c1ncnc(N)c1Cl)c1ncc(C(=O)Nc2cc(C(F)(F)F)c(Cl)cn2)s1 + Cc1nc(NC(=O)N2CCCC2C(N)=O)sc1-c1ccnc(C(C)(C)C(F)(F)F)c1, the IC50 (second compound 0.0316 µM) was greater than 10 µM, the IC50 (second compound 0.1 µM) was greater than 10 µM and the IC50 (second compound 0.316 µM) was greater than 10 µM. For the same molecule, the IC50 (second compound 1 µM) was greater than 10 µM, the IC50 (second compound 3.16 µM) was greater than 10 µM and the IC50 (second compound 10 µM) was greater than 10 µM. The viability, T/C [1] was 107%, the viability, T/C [2] was 107% and the viability, T/C [3] was 91.6%. For the same molecule, the viability, T/C [4] was 111%, the viability, T/C [5] was 106% and the viability, T/C [6] was 105%. The viability, T/C [7] was 101%, the viability, T/C [8] was 97.2% and the viability, T/C [9] was 94.8%. The viability, T/C [10] was 110%, the viability, T/C [11] was 111% and the viability, T/C [12] was 107%. The viability, T/C [13] was 95.8%, the viability, T/C [14] was 98.6% and the viability, T/C [15] was 95.4%. The viability, T/C [16] was 120%, the viability, T/C [17] was 112% and the viability, T/C [18] was 100%. It also gave a viability, T/C [19] of 108%, a viability, T/C [20] of 115% and a viability, T/C [21] of 102%. For the same molecule, the viability, T/C [22] was 114%, the viability, T/C [23] was 97.6% and the viability, T/C [24] was 107%. The viability, T/C [25] was 108%, the viability, T/C [26] was 98% and the viability, T/C [27] was 101%. It also gave a viability, T/C [28] of 96.4%, a viability, T/C [29] of 99% and a viability, T/C [30] of 103%. For the same molecule, the viability, T/C [31] was 67.1%, the viability, T/C [32] was 51.1% and the viability, T/C [33] was 44.1%. The viability, T/C [34] was 56%, the viability, T/C [35] was 61.9% and the viability, T/C [36] was 51.3%.
For Cn1ncnc1[C@H]1c2n[nH]c(=O)c3cc(F)cc(c23)N[C@@H]1c1ccc(F)cc1 + Cc1nc(NC(=O)N2CCCC2C(N)=O)sc1-c1ccnc(C(C)(C)C(F)(F)F)c1, the IC50 (second compound 0.0316 µM) was greater than 0.1 µM, the IC50 (second compound 0.1 µM) was greater than 0.1 µM and the IC50 (second compound 0.316 µM) was greater than 0.1 µM. It also gave an IC50 (second compound 1 µM) greater than 0.1 µM, an IC50 (second compound 3.16 µM) greater than 0.1 µM and an IC50 (second compound 10 µM) greater than 0.1 µM. The viability, T/C (second compound 0.0316 µM, first compound 0.000316 µM) was 96.6%, the viability, T/C (second compound 0.0316 µM, first compound 0.001 µM) was 102% and the viability, T/C (second compound 0.0316 µM, first compound 0.00316 µM) was 101%. It also gave a viability, T/C (second compound 0.0316 µM, first compound 0.01 µM) of 116%, a viability, T/C [1] of 116% and a viability, T/C [2] of 114%. The viability, T/C (second compound 0.1 µM, first compound 0.000316 µM) was 105%, the viability, T/C (second compound 0.1 µM, first compound 0.001 µM) was 105% and the viability, T/C (second compound 0.1 µM, first compound 0.00316 µM) was 91.8%. For the same molecule, the viability, T/C (second compound 0.1 µM, first compound 0.01 µM) was 106%, the viability, T/C [7] was 120% and the viability, T/C [8] was 100%. It also gave a viability, T/C (second compound 0.316 µM, first compound 0.000316 µM) of 111%, a viability, T/C (second compound 0.316 µM, first compound 0.001 µM) of 103% and a viability, T/C (second compound 0.316 µM, first compound 0.00316 µM) of 92.6%. For the same molecule, the viability, T/C (second compound 0.316 µM, first compound 0.01 µM) was 118%, the viability, T/C [13] was 115% and the viability, T/C [14] was 105%. The viability, T/C (second compound 1 µM, first compound 0.000316 µM) was 118%, the viability, T/C (second compound 1 µM, first compound 0.001 µM) was 109% and the viability, T/C (second compound 1 µM, first compound 0.00316 µM) was 89.9%. It also gave a viability, T/C (second compound 1 µM, first compound 0.01 µM) of 115%, a viability, T/C [19] of 99.8% and a viability, T/C [20] of 97.4%. The viability, T/C (second compound 3.16 µM, first compound 0.000316 µM) was 116%, the viability, T/C (second compound 3.16 µM, first compound 0.001 µM) was 103% and the viability, T/C (second compound 3.16 µM, first compound 0.00316 µM) was 98.7%. For the same molecule, the viability, T/C (second compound 3.16 µM, first compound 0.01 µM) was 109%, the viability, T/C [25] was 107% and the viability, T/C [26] was 103%. It also gave a viability, T/C (second compound 10 µM, first compound 0.000316 µM) of 58.2%, a viability, T/C (second compound 10 µM, first compound 0.001 µM) of 68% and a viability, T/C (second compound 10 µM, first compound 0.00316 µM) of 61.3%. It also gave a viability, T/C (second compound 10 µM, first compound 0.01 µM) of 53.3%, a viability, T/C [31] of 63.7% and a viability, T/C [32] of 51.3%.
